# Patent US20250082647A1, “SPECIFIC DOSAGE OF PHENOTHIAZINE COMPOUNDS FOR USE IN TREATMENT OR PREVENTION OF ALZHEIMER'S DEMENTIA” (IMMUNGENETICS AG, priority 2022, published 2025)
# Test system: plasma Abeta1-40
# Test: Plasma Abeta1-40 in human subjects after oral thiethylperazine (INNO-BIA plasma Abeta forms immunoassay)
# Assay type: in vivo
# Conditions: for average increase in plasma Abeta1-40: day 1; for subjects with an increase of plasma Abeta1-40: oral
# Experimental: Samples of 10 ml venous blood were collected in standardized test tubes containing ethylene diamine tetraacetic acid (EDTA) and gently shaken 1-2 times. As soon as possible (within max. 30 min.) samples were centrifuged at 1600 g, room temperature for 10 min. Plasma was aliquoted into 6 portions of 0.5 ml. All aliquots were frozen into a deep freezer (-80° C.) within 10 min after the centrifugation and stored until use. Abeta measurements were performed using the bead-based INNO-BIA plasma Abeta forms immunoassay (Innogenetics/Fujirebio Europe, Gent, Belgium) according to the manufacturer's protocol. Plasma samples and all other kit reagents were prepared according to the manufacturer's protocol. In brief, plasma samples were thawed at room temperature, centrifuged at 4000 g for 10 min to remove any possible debris, vortexed and then diluted 3-fold using Plasma Diluent. After transferring into the filter plate diluted samples, controls and standards were washed and incubated shaking overnight at 4° C. after the addition of the first conjugate. On the next day, all wells were washed 3 times and incubated with detection conjugate for 1 h at room temperature. After another 3 times washing, reading solution was added to all wells and the measurements were performed on a Luminex IS 100 (Luminex Corporation, Austin, TX, USA) platform after 2 minutes of shaking. Luminex instrument settings used were: gate-7500 to 15000, sample volume-50 μL and counts per region-100 beads. Standard curve calculation was performed using Stata 14.2 (StataCorp, College Station, TX, USA) employing a four-parametric logistic fit (nl log4 command). All standards, controls, and the patients' samples were analyzed in duplicates; all samples from a given individual were assayed in one analytical run. The duplicate-averaged concentrations (in pg/ml) of the two biomarkers (Abeta1-40 and Abeta1-42) were calculated. In all eight standard-curves fitting models (4 runs×2 biomarkers), adjusted R-squared statistics were higher than 0.995, which speaks for excellent curve fitting quality. Herein below, thiethylperazine was used as thiethylperazine maleate, wherein the weight-based amounts [in mg] are indicated with respect to thiethylperazine; the weight-based amounts of thiethylperazine maleate [in mg] are indicated in parenthesis. […] On day 1 (t=0 h), blood samples were taken from all subjects. […] Plasma Abeta was considered an indicator of brain Abeta content and Abeta export with higher plasma Abeta concentrations indicating higher Abeta clearance from the brain (Ferrero, Williams et al. 2016, […], Chiao et al. 2016).
structure (smiles),measurement,setting,value
"CCSc1ccc2c(c1)N(CCCN1CCN(C)CC1)c1ccccc1S2 [thiethylperazine, 2-(ethylsulfanyl)-10-[3-(4-methylpiperazin-1-yl)propyl]-10H-phenothiazine]",mean plasma Abeta1-40 concentration difference between responders and non-responders,6.5 mg thiethylperazine,33.04 pg/mL
same,average increase in plasma Abeta1-40,6.5 mg thiethylperazine,7.8%
same,mean plasma Abeta1-40 concentration difference between responders and non-responders,13 mg thiethylperazine,28.07 pg/mL
same,average increase in plasma Abeta1-40,13 mg thiethylperazine,7.8%
same,subjects with an increase of plasma Abeta1-40,"26 mg thiethylperazine (41.12 mg maleate) per day over three consecutive days, steady state, 15 subjects (comparative)",40%
same,average change of plasma Abeta1-40,"26 mg thiethylperazine per day over three consecutive days, steady state",6.5%
same,mean plasma Abeta1-40 concentration difference between responders and non-responders,"26 mg thiethylperazine, steady state",16.53 pg/mL
same,subjects with an increase of plasma Abeta1-40,"after second administration on day 1, dose of 13 mg thiethylperazine (20.56 mg maleate), 15 subjects",87%
same,subjects with an increase of plasma Abeta1-40,"initial dose of 6.5 mg thiethylperazine (10.28 mg maleate), day 1, blood four hours after administration, 15 subjects",53%
same,average increase in plasma Abeta1-40 higher compared to higher dose,lower dose 2-20 mg (6.5 mg and 13 mg) versus 26 mg,≥ 20%
